Source: patent US20230000869A1, “NOVEL ALK2 INHIBITORS AND METHODS FOR INHIBITING BMP SIGNALING” (The Brigham and Women's Hospital, Inc., priority 2017, published 2023)

Assays:
TGFβR2 = TGFβR2 (Homo sapiens, UniProt P37173); test: LanthaScreen Eu kinase binding assay, BMP type II receptor TGFbR2; details: 10-point titration from 10 μM, 3-fold serial dilution, Life Technologies
Excerpt: (§1) For the detailed description of LanthaScreen™ Eu kinase binding assay condition, please see: https://www.thermofisher.com/us/en/home/industrial/pharma-biopharma/drug-discovery-development/target-and-lead-identification-and-validation/kinasebiology/kinase-activity-assays/lanthascreentm-eu-kinas e-binding-assay/lanthascreen-eu-kinase-binding-assay-validation-table.html.

BMP6 = test: Cell assay HTRF BMP6 (Table 15); type: cell-based
ACVR2A = ACVR2A (Homo sapiens, UniProt P27037); test: LanthaScreen Eu kinase binding assay, BMP type II receptor ACVR2A; details: 10-point titration from 10 μM, 3-fold serial dilution, Life Technologies
Excerpt: as §1

ALK2 [1] = target: T1, ALK2 (Homo sapiens, UniProt Q04771); test: ALK2 (nM), Table 15; type: biochemical
T1 sequence (Q04771 147-509 limits assumed): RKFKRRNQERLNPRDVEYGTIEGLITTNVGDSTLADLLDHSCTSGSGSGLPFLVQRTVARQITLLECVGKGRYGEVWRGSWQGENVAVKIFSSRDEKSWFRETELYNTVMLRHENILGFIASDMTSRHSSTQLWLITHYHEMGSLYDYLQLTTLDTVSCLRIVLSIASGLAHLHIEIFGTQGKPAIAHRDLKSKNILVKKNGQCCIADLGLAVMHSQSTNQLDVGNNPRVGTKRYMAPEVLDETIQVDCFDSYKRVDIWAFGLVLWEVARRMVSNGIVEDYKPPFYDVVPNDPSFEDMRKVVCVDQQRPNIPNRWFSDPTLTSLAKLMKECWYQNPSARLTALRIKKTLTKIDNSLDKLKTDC

BMPR2 = target: T2, BMPR2 (Homo sapiens, UniProt Q13873); test: LanthaScreen Eu kinase binding assay, BMP type II receptor BMPR2; details: 10-point titration from 10 μM, 3-fold serial dilution, Life Technologies
T2 sequence (Q13873 27-1038): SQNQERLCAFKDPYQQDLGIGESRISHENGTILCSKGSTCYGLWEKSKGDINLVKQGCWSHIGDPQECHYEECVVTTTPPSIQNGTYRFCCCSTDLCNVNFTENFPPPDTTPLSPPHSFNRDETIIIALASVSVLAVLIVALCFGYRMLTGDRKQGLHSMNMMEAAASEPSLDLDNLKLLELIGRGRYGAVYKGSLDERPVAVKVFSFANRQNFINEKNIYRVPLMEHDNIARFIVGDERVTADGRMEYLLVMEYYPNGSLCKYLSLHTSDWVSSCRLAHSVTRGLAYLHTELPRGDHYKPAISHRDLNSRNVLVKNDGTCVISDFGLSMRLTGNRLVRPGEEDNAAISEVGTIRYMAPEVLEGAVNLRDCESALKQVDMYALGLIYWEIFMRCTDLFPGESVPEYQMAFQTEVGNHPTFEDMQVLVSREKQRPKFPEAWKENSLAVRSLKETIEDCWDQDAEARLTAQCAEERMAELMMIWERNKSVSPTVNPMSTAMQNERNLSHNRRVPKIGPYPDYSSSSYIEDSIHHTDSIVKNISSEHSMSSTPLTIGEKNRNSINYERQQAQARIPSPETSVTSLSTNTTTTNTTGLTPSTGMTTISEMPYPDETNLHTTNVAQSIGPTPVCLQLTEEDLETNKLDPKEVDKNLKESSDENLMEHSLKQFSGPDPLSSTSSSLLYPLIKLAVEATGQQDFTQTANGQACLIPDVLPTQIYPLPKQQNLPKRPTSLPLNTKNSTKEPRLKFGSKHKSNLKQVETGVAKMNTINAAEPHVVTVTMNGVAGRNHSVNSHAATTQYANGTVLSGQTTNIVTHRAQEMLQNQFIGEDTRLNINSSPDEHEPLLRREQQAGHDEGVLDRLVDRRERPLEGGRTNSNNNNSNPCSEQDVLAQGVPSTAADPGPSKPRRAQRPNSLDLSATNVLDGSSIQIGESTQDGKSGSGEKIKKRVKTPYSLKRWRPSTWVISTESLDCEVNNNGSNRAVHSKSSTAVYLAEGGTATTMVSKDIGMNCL
Protocol: (§2) Kinase Profiling BMP Type II Receptor Experimental Procedure (Life Technologies, 5225 Vernona Road, Madison, Wis. 53744)
(§3) The measurement of each compound's half maximal inhibitory concentration (IC50) for BMP type II receptors (ACVR2A, ACVR2B, BMPR2 and TGFbR2) was carried out at Life Technologies by using its 10-point titration (starting concentration: 10 μM with 3-fold serial dilution) LanthaScreen™ biochemical kinase assay protocol. For the detailed description of LanthaScreen™ Eu kinase binding assay condition, please see: https://www.thermofisher.com/us/en/home/industrial/pharma-biopharma/drug-discovery-development/target-and-lead-identification-and-validation/kinasebiology/kinase-activity-assays/lanthascreentm-eu-kinas e-binding-assay/lanthascreen-eu-kinase-binding-assay-validation-table.html.

TGFb = test: Cell assay HTRF TGFb (Table 15); type: cell-based; details: read-out: HRTF TGFb (IC50)
ACVR2B = ACVR2B (Homo sapiens, UniProt Q13705); test: LanthaScreen Eu kinase binding assay, BMP type II receptor ACVR2B; details: 10-point titration from 10 μM, 3-fold serial dilution, Life Technologies
Protocol: as §2, §3

TGFβ = test: Luciferase reporter gene assay for TGFβ activity (HEK293T SBE-Luc SMAD2/3 reporter, TGFβ agonist); type: cell-based; details: Homo sapiens, HEK-293T, TGFβ 5 ng/mL
Outline: (§4)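 TGFβ activity was measured in HEK293T SBE-Luc cells stimulated with 5 ng/mL TGFβ, at compound 10000-30 nM final. ALK2 activity was measured in C2C12 BRE-Luc cells stimulated with 50 ng/mL BMP6, at compound 1000-0.3 nM final. Compound was preincubated 45 min in 2% FBS medium; after ≥18 h agonist exposure, luminescence was read and inhibition expressed as % signal loss versus background-subtracted agonist controls.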

ALK2 [2] = target: T3, ALK2 (Mus musculus, UniProt P37172); test: Luciferase reporter gene assay for ALK2 activity (C2C12 BRE-Luc SMAD1/5/8 reporter, BMP6 agonist); type: cell-based; details: BMP6 50 ng/mL
T3 construct: endogenous in cells; host or cells: C2C12-BRE (BRE-Luc reporter line, G418 selection)
T3 sequence (P37172 21-509): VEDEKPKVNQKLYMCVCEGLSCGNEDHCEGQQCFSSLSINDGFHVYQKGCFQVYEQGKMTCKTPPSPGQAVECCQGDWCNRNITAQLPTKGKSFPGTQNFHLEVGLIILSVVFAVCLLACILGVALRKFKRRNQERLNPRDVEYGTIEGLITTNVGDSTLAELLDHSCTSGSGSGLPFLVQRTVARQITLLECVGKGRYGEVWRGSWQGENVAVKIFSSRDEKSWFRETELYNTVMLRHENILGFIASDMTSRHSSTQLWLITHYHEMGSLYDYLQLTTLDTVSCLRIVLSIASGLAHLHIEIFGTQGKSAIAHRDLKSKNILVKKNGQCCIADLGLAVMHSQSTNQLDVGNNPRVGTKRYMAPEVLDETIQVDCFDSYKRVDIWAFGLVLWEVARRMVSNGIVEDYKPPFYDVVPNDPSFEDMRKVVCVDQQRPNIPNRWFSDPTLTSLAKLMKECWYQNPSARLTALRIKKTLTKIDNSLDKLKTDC
Outline: as §4

Chain of TGFβR2 (P37173 23-567): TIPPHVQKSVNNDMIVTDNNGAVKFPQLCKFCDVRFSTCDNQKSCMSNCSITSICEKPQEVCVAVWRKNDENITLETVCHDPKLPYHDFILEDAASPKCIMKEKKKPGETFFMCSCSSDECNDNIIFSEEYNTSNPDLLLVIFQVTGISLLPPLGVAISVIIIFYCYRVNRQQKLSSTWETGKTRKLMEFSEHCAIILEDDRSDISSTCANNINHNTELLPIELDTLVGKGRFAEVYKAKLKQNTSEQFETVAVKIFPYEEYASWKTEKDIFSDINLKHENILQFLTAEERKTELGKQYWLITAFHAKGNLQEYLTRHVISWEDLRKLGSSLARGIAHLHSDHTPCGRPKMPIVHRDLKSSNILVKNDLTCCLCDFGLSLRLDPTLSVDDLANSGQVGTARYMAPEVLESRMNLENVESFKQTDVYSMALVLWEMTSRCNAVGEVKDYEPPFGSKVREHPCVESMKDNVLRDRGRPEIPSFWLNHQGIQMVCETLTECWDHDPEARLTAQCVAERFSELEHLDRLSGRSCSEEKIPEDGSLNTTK
Chain of ACVR2A (P27037 20-513): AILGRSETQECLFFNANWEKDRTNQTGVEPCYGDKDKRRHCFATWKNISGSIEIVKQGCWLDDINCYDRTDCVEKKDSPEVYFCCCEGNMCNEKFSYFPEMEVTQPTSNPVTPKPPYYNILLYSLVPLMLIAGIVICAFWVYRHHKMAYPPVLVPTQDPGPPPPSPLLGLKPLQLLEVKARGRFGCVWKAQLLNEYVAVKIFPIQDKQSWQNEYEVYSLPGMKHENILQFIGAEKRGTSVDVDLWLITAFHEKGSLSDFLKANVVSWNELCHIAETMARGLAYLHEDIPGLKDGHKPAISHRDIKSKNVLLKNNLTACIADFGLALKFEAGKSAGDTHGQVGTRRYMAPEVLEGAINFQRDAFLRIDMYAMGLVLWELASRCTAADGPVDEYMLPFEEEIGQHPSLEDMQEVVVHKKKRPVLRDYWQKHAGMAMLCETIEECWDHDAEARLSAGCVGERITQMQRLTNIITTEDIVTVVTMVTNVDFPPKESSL
Chain of ACVR2B (Q13705 19-512): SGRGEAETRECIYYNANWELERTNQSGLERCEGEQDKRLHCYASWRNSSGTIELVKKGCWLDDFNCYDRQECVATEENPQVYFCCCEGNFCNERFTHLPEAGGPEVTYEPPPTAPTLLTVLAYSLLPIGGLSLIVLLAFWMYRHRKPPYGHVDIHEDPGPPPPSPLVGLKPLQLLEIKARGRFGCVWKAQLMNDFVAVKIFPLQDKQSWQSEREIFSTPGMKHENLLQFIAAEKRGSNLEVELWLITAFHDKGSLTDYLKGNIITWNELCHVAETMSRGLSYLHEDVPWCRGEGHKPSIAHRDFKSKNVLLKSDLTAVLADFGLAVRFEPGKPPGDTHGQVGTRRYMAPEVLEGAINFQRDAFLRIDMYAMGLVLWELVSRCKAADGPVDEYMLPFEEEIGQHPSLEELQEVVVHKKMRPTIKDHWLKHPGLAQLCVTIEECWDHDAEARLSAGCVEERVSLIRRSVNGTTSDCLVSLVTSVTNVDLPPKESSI

Row | IC50 (TGFβ) [nM] | IC50 (ALK2 [2]) [nM] | Structure (SMILES) | further results
1 | 33 | 25 | c1ccc2c(-c3cnn4cc(N5CCNCC5)cnc34)ccnc2c1 [Compound 80] | IC50 (TGFβR2): 194 nM; IC50 (BMP6): 250 nM; IC50 (ACVR2A): 3710 nM; IC50 (ALK2 [1]): 93 nM; IC50 (BMPR2): ≥ 10000 nM; IC50 (TGFb): 5790 nM; IC50 (ACVR2B): 3610 nM
2 | 30 | 23 | Cc1cc(-c2cnn3cc(N4CC(N5CCN(C)CC5)C4)cnc23)c2ccc(F)c(F)c2n1 [Compound 315] | 
3 | < 20 | 22 | Cc1cc(-c2cnn3cc(N4CC(N5CCN(C)CC5)C4)cnc23)c2cccc(F)c2n1 [Compound 316] | 
4 | < 1 | 9 | Cc1cc(-c2cnn3cc(N4CC5(CC(N(C)C)C5)C4)cnc23)c2ccccc2n1 [Compound 337] | 
5 | 771 | 15 | Cc1ccc2nccc(-c3cnn4cc(N5CCC(N6CCOCC6)CC5)cnc34)c2c1 [Compound 341] | 
6 | 975 | 477 | Cc1cc(-c2cnn3cc(N4CC(OCCN(C)C)C4)cnc23)c2ccccc2n1 [Compound 350] | 
7 | 389 | 13 | Cc1cc(-c2cnn3cc(N4CC5(CC(N)C5)C4)cnc23)c2ccccc2n1 [Example 295] | 
8 | < 1 | 3 | Cc1cc(-c2cnn3cc(N4CC5(CN(C)C5)C4)cnc23)c2ccccc2n1 [Example 298] | 

Continued, compound first:

Row | Structure (SMILES) | IC50 (TGFβ) [nM] | IC50 (ALK2 [2]) [nM] | further results
9 | c1ccc2c(-c3cnn4cc(N5CCN(C6CCNCC6)CC5)cnc34)ccnc2c1 [Compound 79] |  |  | IC50 (TGFβR2): 71.3 nM; IC50 (BMP6): 97.4 nM; IC50 (ACVR2A): 851 nM; IC50 (ALK2 [1]): 110 nM; IC50 (BMPR2): > 10000 nM; IC50 (TGFb): 4610 nM; IC50 (ACVR2B): 1280 nM
10 | COc1cc(F)c2nccc(-c3cnn4cc(N5CC(N6CCN(C)CC6)C5)cnc34)c2c1 [Compound 314] | 27 | 8 | 
11 | [2H]C([2H])([2H])c1ccc2nccc(-c3cnn4cc(N5CCC(N6CCN(C)CC6)CC5)cnc34)c2c1 [Compound 320] | 605 | 27 | 
12 | COc1cc2c(-c3cnn4cc(N5CCC(N6CCN(C)C(=O)C6)CC5)cnc34)ccnc2cc1F [Compound 323] | > 1000 | 194 | 
13 | COc1cc2c(-c3cnn4cc(N5CCC(N6CCN(C)CC6)CC5)cnc34)cc[n+]([O-])c2cc1F [Compound 324] | 723 | 178 | 
14 | COc1cc2c(-c3cnn4cc(N5CCNCC5=O)cnc34)ccnc2cc1F [Compound 326] | > 3000 | > 1000 | 
15 | COc1cc2c(-c3cnn4cc(N5CCC(N6CCN(C)CC6=O)CC5)cnc34)ccnc2cc1F [Compound 329] | > 3000 | > 1000 | 
16 | COc1cc2c(-c3cnc4cc(N5CC(N6CCN(C)CC6)C5)cnn34)ccnc2cc1F [Compound 335] | > 2000 | 47 | 
17 | CN1CCN(C2CN(c3cnc4c(N5CCN(C(=O)C6CC6)CC5)cnn4c3)C2)CC1 [Compound 339] | > 3000 | > 1000 | 
18 | [2H]C([2H])([2H])Oc1cc2c(-c3cnn4cc(N5CCC(N6CCN(C)CC6)CC5)cnc34)ccnc2cc1F [Compound 346] | 686 | 18 | 
19 | COc1cc2c(-c3cnc4cc(N5CCC(N6CCN(C)CC6)CC5)ccn34)ccnc2cc1F [Compound 351] | > 3000 | 372 | 
20 | COc1cc2c(-c3nnc4cc(N5CCC(N6CCN(C)CC6)CC5)ccn34)ccnc2cc1F [Compound 354] | > 3000 | > 1000 | 
21 | COc1cc2c(-c3cnc4cc(N5CCC(N6CCN(C)CC6)CC5)cnn34)ccnc2cc1F [Compound 355] | 791 | 146 | 
22 | Cc1ccc2nccc(-c3cnn4cc(N5CC(c6ccncc6)C5)cnc34)c2c1 [Example 292] | 595 | 159 | 
23 | COc1cc2c(-c3cnn4cc(N5C[C@@H]6C(N(C)C)[C@@H]6C5)cnc34)ccnc2cc1F (stereo partly drawn) [Example 297] | > 1000 | 21 | 
24 | Cc1cc2c(-c3cnn4cc(N5CC(N6CCOCC6)C5)cnc34)ccnc2cc1F [Example 301] | < 20 | 18 | 
